Among the data in patent publication US10104891B2 (priority 2014, dated 2018) are pest or weed control and melting point values, retold here.

In one series the test system is Plasmopara viticola. Description: Test 3: control effect against grape downy mildew. The format is in vivo. Conditions: Plasmopara viticola, 120 h, control value vs untreated section. In outline: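 Neomuscat grape seedlings were sprayed with compound at 4 ppm, diluted from a 10% wettable powder in Tween20 solution. One day later they were inoculated with Plasmopara viticola zoospores at 1.0×10^4 units/ml and held moist at 22° C. for 16 hr. Control value was derived from leaf lesion area at 5 days versus untreated leaves.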

Series [1] deals with Pseudoperonospora cubensis. Description: Test 2: control effect against cucumber downy mildew. The format is in vivo. Conditions: Pseudoperonospora cubensis, 120 h, control value vs untreated section. Summed up:
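Cucumber (Sagami hanjiro) at 2-leaf stage sprayed with 4 ppm compound from 10% wettable powder in Tween20 (1/5000); inoculated next day with P. cubensis zoospores, 1.0×10^4 units/ml, 16 hr moist chamber at 22° C. Lesion area rate scored 5 days post-inoculation; control value = (1 − treated/untreated onset area rate)×100.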

In a further series the test system is Phytophthora infestans. Nature of the series: whole plant or invertebrate. Format: in vivo. Particulars: Phytophthora infestans, in Solanum lycopersicum, 96 h, read-out: control value (Test 1).
In another series the test system is Pythium graminicola. Nature of the series: Test 4: control effect against rice damping-off by the Pythium fungus (soil lavage). The format is in vivo. Particulars: 1,000 ppm, 2.5 ml test suspension drenched on contaminated soil, rice (koshihikari). In outline:
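Compound at 1,000 ppm in 1/5000 Tween20 was drenched (2.5 ml) onto Koshihikari rice seeds, 3 pre-sprouted seeds per cell, sown in soil infested with Pythium graminicola (5 g/kg). Regime: 28 °C for 72 h, 5 °C for 2 days, then 25 °C for 14 days. Dead and stunted seedlings were scored into an onset rate, and control value = (1 − treated/untreated) × 100.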

Molecule `Cc1cc(C(F)(F)F)nn1CC(=O)N1CCC(c2nc(C3OCc4c(F)ccc(OS(C)(=O)=O)c4CO3)cs2)CC1` (stereo not shown) [Compound 1-8, 4-[4-(6-fluoro-9-methylsulfonyloxy-1,5-dihydro-3H-2,4-benzodioxepin-3-yl)-2-thiazolyl]-1-[2-[5-methyl-3-(trifluoromethyl)-1H-pyrazole-1-yl]acetyl]piperidine] showed a melting point of 151 °C. The pest or weed control at 4 µg/mL with Plasmopara viticola came to 100%. This molecule came in with a pest or weed control at 4 µg/mL in series [1] of 100%. Further, the pest or weed control at 4 µg/mL in the series with Phytophthora infestans turned out to be 100%.

For `COc1ccc(C)c2c1COC(c1csc(C3CCN(C(=O)Cc4cc(C)ccc4C)CC3)n1)OC2` (stereo not shown) [Compound 2-45, 4-[4-(6-methoxy-9-methyl-1,5-dihydro-3H-2,4-benzodioxepin-3-yl)-2-thiazolyl]-1-[2-(2,5-dimethylphenyl)acetyl]piperidine], the pest or weed control at 4 µg/mL in the series with Plasmopara viticola was found to be 100%; in series [1] it was 100%; in the series with Phytophthora infestans it was 90%. The pest or weed control at 1000 ppm in the series on Pythium graminicola was at least 90%.

Turning to `O=C(Cc1cc(Cl)ccc1Cl)N1CCC(c2nc(C3OCc4cccc(OC(F)F)c4CO3)cs2)CC1` (stereo not shown) [Compound 2-48, 4-[4-[6-(difluoromethoxy)-1,5-dihydro-3H-2,4-benzodioxepin-3-yl]-2-thiazolyl]-1-[2-(2,5-dichlorophenyl)acetyl]piperidine], the pest or weed control at 4 µg/mL (in the series with Plasmopara viticola; in series [1]; in the series on Phytophthora infestans) was 100% in each case. This molecule displayed a pest or weed control at 1000 ppm with Pythium graminicola of at least 90%.

On to `COc1ccc(F)c2c1COC(c1csc(C3CCN(C(=O)Cc4cc(C)ccc4C)CC3)n1)OC2` (stereo not shown) [Compound 2-52, 4-[4-(6-fluoro-9-methoxy-1,5-dihydro-3H-2,4-benzodioxepin-3-yl)-2-thiazolyl]-1-[2-(2,5-dimethylphenyl)acetyl]piperidine], for which the pest or weed control at 4 µg/mL (with Plasmopara viticola; in series [1]; with Phytophthora infestans) was 100% in each case. Further, in the series with Pythium graminicola, the pest or weed control at 1000 ppm is at least 90%.

Consider `Cc1ccc(C)c(N(C)C(=O)N2CCC(c3nc(C4OCc5c(F)ccc(OS(C)(=O)=O)c5CO4)cs3)CC2)c1` (stereo not shown) [Compound 2-55, 4-[4-(6-fluoro-9-methylsulfonyloxy-1,5-dihydro-3H-2,4-benzodioxepin-3-yl)-2-thiazolyl]-1-[N-(2,5-dimethylphenyl)-N-methylcarbamoyl]piperidine], for which the pest or weed control at 4 µg/mL (in the series with Plasmopara viticola; in series [1]; in the series on Phytophthora infestans) was 100% throughout. Further, the pest or weed control at 1000 ppm in the series with Pythium graminicola is at least 90%.

In the case of `Cc1ccc(C)c(N(C)C(=O)N2CCC(c3nc(C4OCc5cccc(OS(C)(=O)=O)c5CO4)cs3)CC2)c1` (stereo not shown) [Compound 2-56, 4-[4-(6-methylsulfonyloxy-1,5-dihydro-3H-2,4-benzodioxepin-3-yl)-2-thiazolyl]-1-[N-(2,5-dimethylphenyl)-N-methylcarbamoyl]piperidine], the pest or weed control at 4 µg/mL is 70% in the series with Plasmopara viticola, 30% in series [1] and 90% with Phytophthora infestans. This molecule also yielded a pest or weed control at 1000 ppm with Pythium graminicola of at least 90%.

Regarding `Cc1ccc(C)c(CC(=S)N2CCC(c3nc(C4OCc5c(F)ccc(OS(C)(=O)=O)c5CO4)cs3)CC2)c1` (stereo not shown) [Compound 2-57, 4-[4-(6-fluoro-9-methylsulfonyloxy-1,5-dihydro-3H-2,4-benzodioxepin-3-yl)-2-thiazolyl]-1-[2-(2,5-dimethylphenyl)thioacetyl]piperidine], the pest or weed control at 4 µg/mL (in the series with Plasmopara viticola; in series [1]; in the series with Phytophthora infestans) was 100% in each case. The molecule further registered a pest or weed control at 1000 ppm in the series on Pythium graminicola of at least 90%.

As usually defined, the melting point is the temperature of the solid-liquid transition.
